Here are results for one compound from patent publication US8552035B2, “Phenanthrenone compounds, compositions and methods” (Pfizer Inc., priority 2008, dated 2013).

Molecules are shown by their SMILES.

What all share (assay type): in vivo
For data set [1], the system named is Mouse collagen-induced arthritis. Put plainly: Therapeutic mouse collagen-induced arthritis (mCIA). From the text: Mouse Collagen-induced arthritis is a commonly used chronic, preclinical model of rheumatoid arthritis in which joint swelling and bone destruction occur following immunization with type II collagen. Reduction of disease incidence and severity has been shown previously to be predictive of disease-modification and signs and symptoms mitigation, respectively, in a clinical setting.
In the therapeutic mCIA model, induction of disease incidence and severity was synchronized via LPS stimulation. Male DBA/J mice were immunized with 100 ug of bovine type II collagen (bCII) on day 0. All mice received an intraperitoneal injection of 20 μg of LPS on day 28 and disease was allowed to develop through day 34. At day 34, all mice had disease (incidence=100%) with an average severity score of seven. Dosing of compounds was initiated in the therapeutic mode on day 34 and continued through day 49. Different treatments were compared by measuring the decrease in incidence (i.e., resolution of disease) and the decrease in severity of paw swelling over time.
(§1) ED50 and ED80 values are obtained for the various parameters using four-parameter logistic fits of data. For each experiment/dose group, outliers are detected by calculating the number of standard deviations each mouse's value was from the mean of their group and then dividing by the standard deviation of the group. The means and standard deviations used in this calculation omitted the value being examined so that, if it were an outlier, it would have no influence. If the value being examined is more than 2.5 standard deviations from the mean, it was not used in the rest of the calculations.
(§2) Percent inhibition values are then calculated for each animal using the means of the vehicle and 10 mpk prednisone control groups. The individual mouse percent inhibition values are then fit to a four-parameter logistic model using the area under curve mean for each group. Since all four parameters are estimated and the lower plateau is not fixed at 0% and the upper plateau was not fixed at 100%, the ED50 and ED80 values are calculated by using an inverse calibration formula for a response equal to 50% or 80%. The designation “nd” means not determined.

The subject of a further data set is bone formation rate. Put plainly: 28-day mouse side-effect model, cortical bone histomorphometry (bone formation rate). Conditions: oral gavage 28 days, tibia cortical bone formation rate. The procedure:
(§3) 10-12 week old female Swiss Webster mice (Taconic, Germantown, N.Y., U.S.A.) weighing 27-29 grams are used in accordance with the guidelines of the Institutional Animal Care and Use Committee and in accordance with NIH guidelines on laboratory animal welfare. Mice are acclimated to the Pfizer animal facility for 3-7 days prior to being placed on study. Prednisolone and DAGR compounds are administered by oral gavage for a total of 28 days. Each treatment group generally contains 8-10 mice. To establish a dosing regimen for the studies, a pilot pharmacodynamic time course experiment is conducted to quantify TNFa repression after a single ED80 dose (determined from the acute LPS endotoxemia mouse model). […] DAGR compounds vary in their required frequency of doses.
During the in-life portion of each study, mice received two IP injections of the fluorochrome calcein (C-0875; Sigma-Aldrich; 20 mg/kg; 200 μL/mouse), dissolved in 2% sodium bicarbonate, on days 1 and 26 for bone histomorphometry measurements. Fluorochrome labels incorporate into the bone mineral and allow measurement of bone formation rate. During the tissue harvest, the left tibia is excised and cleaned for cortical histomorphometry measurements. After all skin and muscle are removed, tibiae are placed in 70% ethanol (4° C.) in the dark for a minimum of 24 hours.
Ground transverse sections are used for histomorphometric analysis of cortical bone^1. Bones are sectioned using a low speed saw (Isomet, Buehler, Lake Bluff, Ill.) equipped with a diamond wafer blade. The end of each tibia is removed proximal to tibia-fibula synostosis and a […] cross-section is cut. Using a roughened glass plate and a cork, sections are ground to […] until transparent and all labels distinguishable under a fluorescent microscope. Sections are dehydrated using the following solutions for a minimum of 2 minutes each: 1) 70% ethanol, 2) 95% ethanol, 3) 100% ethanol, 4) 50/50 ethanol/xylene, and 5) xylene (twice) (Sigma, St. Louis, 534056). Sections are mounted using Eukitt Quick Mounting Medium (Sigma, St. Louis, 03989) and cover-slipped. Using the Osteomeasure Bone Analysis Program (Decatur, Ga.), bone formation rate is calculated by tracing the 1st and 2nd fluorescent labels in addition to tracing the inner and outer perimeter of the bone. Bone formation rate is calculated by the following equation: (Interlabel Width/Label Interval)*(Labeled Perimeter/Bone Perimeter). At least 5 samples are measured from each treatment group in each study.
as §1, §2

Another data set has as its system serum insulin. Put plainly: 28-day mouse side-effect model, serum insulin. Conditions: oral gavage 28 days. The procedure:
as §3
Body weights are measured on the first and last day of each experiment. Blood samples are obtained after ˜3 weeks of dosing for steady-state pharmacokinetic analysis. To assess compound effects on LPS-induced TNF-a, all mice receive an intraperitoneal injection of LPS (Salmonella Typhosa, Sigma, St. Louis, L-7895) 2.5 hr after the last dose on day 28. Mice are sacrificed 90 min. after LPS administration. Serum samples are assayed for osteocalcin and TNFa using the Linco multiplex assay (St. Charles, Mo.) and Luminex 100 (Austin, Tex.). Samples are diluted 1:20 and the assay is run according to manufacturer's instructions. An osteocalcin standard is purchased separately from Biomedical Technologies Incorporated (Stoughton, Mass.). Serum insulin is measured to assess compound effects on insulin resistance. Insulin was measured using the UltraSensitive Mouse EIA kit from Alpco Diagnostics (Salem, N.H.) following the manufacturer's protocol.
as §1, §2

Usually ED50 stands for the dose at which the effect has come halfway, by size or by number of responders. Consider `Cc1ncccc1NC(=O)c1ccc2c(c1)C(=O)C[C@@H]1C[C@@](O)(c3ccccc3)[C@](C)(O)C[C@@]21Cc1ccccc1` [Example 1, (4bR,6R,7R,8aS)-4b-benzyl-6,7-dihydroxy-6-methyl-N-(2-methylpyridin-3-yl)-10-oxo-7-phenyl-4b,5,6,7,8,8a,9,10-octahydrophenanthrene-2-carboxamide], for which the ED50 in data set [1] (816 h, dosing day 34 to 49, read-out: Therapeutic mCIA (ED50 dose)) was 0.3 mg/kg. The “Therapeutic mCIA (ED80 dose)” value in data set [1] (dosing day 34 to 49) was found to be 1.61. Besides, the ED50 at 28 days turned out to be 0.12 mg/kg with bone formation rate (female, Swiss Webster, read-out: BFR (ED50 dose)) and 1.28 mg/kg in the data set with serum insulin (female, Swiss Webster, read-out: Insulin (ED50 dose)). In addition, the “BFR (ED80 dose)” value in the data set with bone formation rate is 0.87. Further, the “Insulin (ED80 dose)” value with serum insulin amounted to 5.89.
